Assay results taken from US6602900B2, “Cyclopentane heptan(ENE)oic acid, 2-heteroarylalkenyl derivatives as therapeutic agents” (Allergan, Inc., priority 1992, dated 2003).
Where two headings read alike, the source gives them in different places.

Experiments:
[1] = target: T1, TP receptor (Rattus norvegicus, UniProt P34978); experiment: TP-vasoconstrictor activity: contraction of rings of the isolated rat thoracic aorta; type: cell-based
T1 construct: rings of the isolated rat thoracic aorta; from tissue; host or cells: isolated rat thoracic aorta rings
T1 sequence (P34978 1-341): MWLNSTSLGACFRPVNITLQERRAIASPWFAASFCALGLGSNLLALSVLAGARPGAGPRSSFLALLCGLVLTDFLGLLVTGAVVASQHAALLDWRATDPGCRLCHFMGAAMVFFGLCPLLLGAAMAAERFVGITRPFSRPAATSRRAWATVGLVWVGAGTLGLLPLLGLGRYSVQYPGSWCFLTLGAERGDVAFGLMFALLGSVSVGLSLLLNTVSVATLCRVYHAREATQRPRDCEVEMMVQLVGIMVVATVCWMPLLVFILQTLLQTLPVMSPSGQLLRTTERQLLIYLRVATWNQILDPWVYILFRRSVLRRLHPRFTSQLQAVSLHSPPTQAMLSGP
Procedure: (§1) Activity at different prostanoid receptors was measured in vitro in isolated smooth muscle preparations. FP-activity was measured as contraction of the isolated feline iris sphincter. EP1-activity was measured as contraction of the longitudinal smooth muscle of the isolated guinea pig ileum. EP3-activity was measured as inhibition of the twitch response induced by electrical field stimulation in the isolated guinea pig was deferens and as contraction of the longitudinal smooth muscle of the isolated chick ileum. Activity was also measured as relaxation of smooth muscle of isolated rabbit jugular vein a preparation which appears to contain a unique PGF2α-sensitive receptor provisionally termed FPVASC. TP-vasoconstrictor activity was measured as contraction of rings of the isolated rat thoracic aorta. Effects on platelets from healthy human donors were measured by incubating platelet-rich plasma with the compounds described herein. Inhibition of aggregation was determined by the ability of the compounds described herein to inhibit platelet aggregation in platelet-rich plasma induced by 20 μM ADP.

[2] = target: T2, EP1 receptor (Cavia porcellus, UniProt A0A286XHJ6); experiment: EP1-activity: contraction of the longitudinal smooth muscle of the isolated guinea pig ileum; type: cell-based
T2 sequence (A0A286XHJ6 1-405): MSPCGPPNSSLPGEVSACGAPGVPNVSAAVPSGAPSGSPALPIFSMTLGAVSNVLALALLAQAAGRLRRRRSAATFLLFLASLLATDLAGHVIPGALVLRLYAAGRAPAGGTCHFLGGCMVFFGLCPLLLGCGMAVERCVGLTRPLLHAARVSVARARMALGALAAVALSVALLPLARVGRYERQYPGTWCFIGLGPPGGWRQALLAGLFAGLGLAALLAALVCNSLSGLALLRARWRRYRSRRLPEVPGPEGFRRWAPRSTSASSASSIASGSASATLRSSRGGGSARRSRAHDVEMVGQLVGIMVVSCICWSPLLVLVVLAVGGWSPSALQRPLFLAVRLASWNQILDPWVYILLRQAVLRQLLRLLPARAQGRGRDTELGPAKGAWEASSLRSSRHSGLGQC
Procedure: as §1

[3] = target: T3, EP3 receptor (UniProt A0A286XLZ9); experiment: EP3-activity: inhibition of the twitch response induced by electrical field stimulation in the isolated guinea pig vas deferens; type: cell-based; conditions: pa = printed beside some values, read-out: EC50 (nM) EP3, first value of the cell
T3 sequence (A0A286XLZ9 1-363): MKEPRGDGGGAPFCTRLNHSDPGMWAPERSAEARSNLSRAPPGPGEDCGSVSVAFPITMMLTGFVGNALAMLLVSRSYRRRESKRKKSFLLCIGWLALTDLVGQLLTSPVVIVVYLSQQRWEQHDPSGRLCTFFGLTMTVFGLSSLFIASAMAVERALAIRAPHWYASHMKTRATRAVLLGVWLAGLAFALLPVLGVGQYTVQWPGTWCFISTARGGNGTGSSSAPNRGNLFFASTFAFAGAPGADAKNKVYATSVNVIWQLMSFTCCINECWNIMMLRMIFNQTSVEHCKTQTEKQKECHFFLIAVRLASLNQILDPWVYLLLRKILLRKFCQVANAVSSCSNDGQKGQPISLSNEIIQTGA
Procedure: as §1

[4] = test system: PGF2α-sensitive receptor provisionally termed FPVASC; experiment: Relaxation of smooth muscle of isolated rabbit jugular vein; type: cell-based
Procedure: as §1

[5] = test system: Dog eye (hyperemia); experiment: Ocular surface hyperemia in dogs after topical dosing; type: in vivo; parameters: scale not given here
[6] = test system: Dog eye (miosis); experiment: Miosis in dogs after topical dosing; type: in vivo
[7] = isolated rat thoracic aorta contraction, read-out: EC50 (nM) TP
[8] = isolated rabbit jugular vein relaxation, read-out: EC50 (nM) FPVASC
[9] = Table of compounds 17a-25, unit inferred, read-out: rtTPva
[10] = read-out: rbFPv/EP4, Table of compounds 17a-25, unit inferred

Compound	EC50 [1, 7] [nM]	EC50 [2] [nM]	EC50 [3] [nM]	EC50 [4, 8] [nM]	EC50 [4, 10] [nM]	also measured
NC(=O)CCC/C=C\C[C@@H]1[C@@H](/C=C/[C@@H](O)CCc2ccsc2)[C@H](O)C[C@@H]1O	> 10000	> 10000	> 10000	3.6		
O=C(O)CCC/C=C\C[C@@H]1[C@@H](/C=C/[C@H](O)CCc2ccsc2)[C@H](O)C[C@@H]1O				58		
NC(=O)CCC/C=C\C[C@@H]1[C@@H](/C=C/[C@H](O)CCc2ccsc2)[C@H](O)C[C@@H]1O						Hyp (hyperemia score) ([5]; 0.1%): 0.72; Miosis ([6]; 0.1%): pin
CO[C@H](/C=C/[C@@H]1[C@@H](C/C=C\CCCC(=O)O)[C@@H](O)C[C@H]1O)CCc1ccsc1	~10000	> 10000	189	2.1		Hyp (hyperemia score) ([5]; 0.1%): 0.83; Miosis ([6]; 0.1%): pinpt
O=C(O)CCC/C=C\C[C@@H]1[C@@H](CC[C@@H](O)CCc2ccsc2)[C@H](O)C[C@@H]1O	4740	> 10000	105	545		
O=C(O)CCC/C=C\C[C@@H]1[C@@H](/C=C/[C@@H](O)CCc2ccoc2)[C@H](O)C[C@@H]1O	5400	> 10000	83			Hyp (hyperemia score) ([5]; 0.01%): 0.83; Hyp (hyperemia score) ([5]; 0.1%): 0.38; Miosis ([6]; 0.01%): mild; Miosis ([6]; 0.1%): pinpoint
O=C(O)CCC/C=C\C[C@@H]1[C@@H](CCC(O)CCc2ccoc2)[C@H](O)C[C@@H]1O (stereo partly shown)				> 5880		
O=C(O)CCC/C=C\C[C@@H]1[C@@H](/C=C/[C@@H](O)CCc2ccco2)[C@H](O)C[C@@H]1O	~10000	> 10000	44	> 7690		Hyp (hyperemia score) ([5]; 0.01%): 0.54; Hyp (hyperemia score) ([5]; 0.1%): 0.67; Miosis ([6]; 0.01%): mild; Miosis ([6]; 0.1%): pinpoint
Cc1sccc1CC[C@H](O)/C=C/[C@@H]1[C@@H](C/C=C\CCCC(=O)O)[C@@H](O)C[C@H]1O	3980	> 10000	355	> 833		
O=C(O)CCC/C=C\C[C@@H]1[C@@H](/C=C/[C@@H](O)CCc2cc3ccccc3o2)[C@H](O)C[C@@H]1O			9000	> 69000		Hyp (hyperemia score) ([5]; 0.01%): 0.17; Hyp (hyperemia score) ([5]; 0.1%): 0.13; Miosis ([6]; 0.01%): 0; Miosis ([6]; 0.1%): 0
O=C(O)CCC/C=C\C[C@@H]1[C@@H](/C=C/[C@@H](O)CCc2cc3ccccc3s2)[C@H](O)C[C@@H]1O			~10000	2660		
O=C(O)CCC/C=C\C[C@@H]1[C@@H](/C=C/[C@@H](O)CCc2ccsc2Cl)[C@H](O)C[C@@H]1O	2450	> 10000	1000	47		Hyp (hyperemia score) ([5]; 0.1%): 1.13; Miosis ([6]; 0.1%): pinpoint
Cc1ccc(CC[C@H](O)/C=C/[C@@H]2[C@@H](C/C=C\CCCC(=O)O)[C@@H](O)C[C@H]2O)s1	> 10000	> 10000	341	> 7690		
O=C(O)CCC/C=C\C[C@@H]1[C@@H](/C=C/[C@@H](O)CCc2cc(Br)cs2)[C@H](O)C[C@@H]1O	371	> 10000	50	16		
O=C(O)CCC/C=C\C[C@@H]1[C@@H](/C=C/[C@@H](O)CCc2nccs2)[C@H](O)C[C@@H]1O				1000		Hyp (hyperemia score) ([5]; 0.1%): 0.6; Miosis ([6]; 0.1%): pinpoint
O=C(O)CCC/C=C\C[C@@H]1[C@@H](/C=C/[C@H](O)CCc2nccs2)[C@H](O)C[C@@H]1O				28300		
O=C(O)CCC/C=C\C[C@@H]1[C@@H](/C=C/[C@@H](O)CCc2sccc2Cl)[C@H](O)C[C@@H]1O	3530	> 10000		122		
CCc1ccc(CC[C@H](O)/C=C/[C@@H]2[C@@H](C/C=C\CCCC(=O)O)[C@@H](O)C[C@H]2O)s1	> 10000			21		
NC(=O)CCC/C=C\C[C@@H]1[C@@H](/C=C/[C@@H](O)CCc2cc(Cl)sc2Cl)[C@H](O)C[C@@H]1O	> 10000			82		Hyp (hyperemia score) ([5]; 0.1%): 1.2; Miosis ([6]; 0.1%): pinpoint
N#Cc1ccc(CC[C@H](O)/C=C/[C@@H]2[C@@H](C/C=C\CCCC(=O)O)[C@@H](O)C[C@H]2O)s1 [Compound 17a, 7-[3α,5α-Dihydroxy-2-(3α-hydroxy-5-(2-(5-cyano)thienyl)-1E-pentenyl)cyclopentyl]-5Z-heptenoic acid]					112	EC50 [1, 9]: ~10000 nM
N#Cc1ccc(CC[C@H](O)/C=C/[C@@H]2[C@@H](C/C=C\CCCC(N)=O)[C@@H](O)C[C@H]2O)s1 [Compound 17b, 7-[3α,5α-Dihydroxy-2-(3α-hydroxy-5-(2-(5-cyano)thienyl)-1E-pentenyl)cyclopentyl]-5Z-heptenamide]					> 256000	
CC(C)OC(=O)CCC/C=C\C[C@@H]1[C@@H](/C=C/[C@@H](O)CCc2ccc(C#N)s2)[C@H](O)C[C@@H]1O [Compound 17c, Isopropyl-7-[3α,5α-Dihydroxy-2-(3α-hydroxy-5-(2-(5-cyano)thienyl)-1-E-pentenyl)cyclopentyl]-5Z-heptenoate]					6510	
O=C(O)CCC/C=C\C[C@@H]1[C@@H](/C=C/[C@@H](O)CCc2sccc2F)[C@H](O)C[C@@H]1O [Compound 18b]					2.9	EC50 [1, 9]: 3500 nM
CS(=O)(=O)NC(=O)CCC/C=C\C[C@@H]1[C@@H](/C=C/[C@@H](O)CCc2ccc(Cl)s2)[C@H](O)C[C@@H]1O [Compound 20a, N-Methylsulfonyl-7-[3α,5α-Dihydroxy-2-(3α-hydroxy-5-(2-(5-chloro)thienyl)-1E-pentenyl)cyclopentyl]-5Z-heptenamide]					6070	
CCS(=O)(=O)NC(=O)CCC/C=C\C[C@@H]1[C@@H](/C=C/[C@@H](O)CCc2ccc(Cl)s2)[C@H](O)C[C@@H]1O [Compound 20b, N-Ethylsulfonyl-7-[3α,5α-Dihydroxy-2-(3α-hydroxy-5-(2-(5-chloro)thienyl)-1E-pentenyl)cyclopentyl]-5Z-heptenamide]					1040	
O=C(CCC/C=C\C[C@@H]1[C@@H](/C=C/[C@@H](O)CCc2ccc(Cl)s2)[C@H](O)C[C@@H]1O)NS(=O)(=O)C(F)(F)F [Compound 20c, N-Trifluoromethylsulfonyl-7-[3α,5α-Dihydroxy-2-(3α-hydroxy-5-(2-(5-chloro)thienyl)-1E-pentenyl)cyclopentyl]-5Z-heptenamide]					221	EC50 [1, 9]: > 10000 nM
CS(=O)(=O)NC(=O)CCC/C=C\C[C@@H]1[C@@H](/C=C/[C@@H](O)CCc2ccc(I)s2)[C@H](O)C[C@@H]1O [Compound 21a, N-Methylsulfonyl-7-[3α,5α-Dihydroxy-2-(3α-hydroxy-5-(2-(5-iodo)thienyl)-1E-pentenyl)cyclopentyl]-5Z-heptenamide]					1820	
CCS(=O)(=O)NC(=O)CCC/C=C\C[C@@H]1[C@@H](/C=C/[C@@H](O)CCc2ccc(I)s2)[C@H](O)C[C@@H]1O [Compound 21b, N-Ethylsulfonyl-7-[3α,5α-Dihydroxy-2-(3α-hydroxy-5-(2-(5-iodo)thienyl)-1E-pentenyl)cyclopentyl]-5Z-heptenamide]					189	
O=C(CCC/C=C\C[C@@H]1[C@@H](/C=C/[C@@H](O)CCc2ccc(I)s2)[C@H](O)C[C@@H]1O)NS(=O)(=O)C(F)(F)F [Compound 21c, N-Trifluoromethylsulfonyl-7-[3α,5α-Dihydroxy-2-(3α-hydroxy-5-(2-(5-iodo)thienyl)-1E-pentenyl)cyclopentyl]-5Z-heptenamide]					36	
